Assay results from patent publication US20160101072A1, “Therapeutic uses of enzyme inhibitors” (Proximagen Limited, priority 2013, published 2016).

Columns and labels:
Format in all cases: in vivo, mouse
[1] = test system: Lgals3 mRNA; assay: mRNA quantification (RT PCR) of Lgals3 in muscles of mdx mice
From the text: (§1) A total of a ninety C57BU10ScSn-Dmdmdx/J male mice, 3 weeks of age (+/-3days), were transferred to the in vivo research laboratory in Bar Harbor, Me. Additional ten […] male mice 3 weeks of age (+/-3 days) were also transferred and served as a wild-type control group. The mice were ear notched for identification and housed in ventilated polysulfone cages with HEPA filtered air at a density of 3-4 mice per cage. The animal room was lit entirely with artificial fluorescent lighting on controlled 12 hour light/dark cycle (6 a.m. to 6 p.m. light). […] The animal room was set for 15 air exchanges per hour. Filtered tap water acidified to a pH of 2.8 to 3.2 was provided ad libitum. […] Prior to study initiation, mice were acclimated for 3 days. Mice were tested for grip strength and in the open field at ages 25 and 26 days, and drug regimen was initiated at age 27 days. Mice were monitored twice weekly for clinical observations and body weights. […] 24 hours after the second open field tests, blood was collected by retro-orbital bleeding, and mice were humanely euthanized by CO2 asphyxiation. One triceps surae was collected fresh and processed for immune cell sorting, one tibialis anterior was preserved in RNALater for RNA extraction, one whole hind limb and the diaphragm were fixed in 2% paraformaldehyde overnight at 4° C. for paraffin embedding and histology stains. Total RNAs were extracted with a modification of the Trizol method, reverse transcribed, and mRNAs of TGFβ, and the following inflammation markers were quantified by the SYBR green method with GAPDH as a normalizer: […]

[2] = test system: CD11b+Ly6Clow anti-fibrotic myeloid cells (Ly6C- monocytes); assay: Cell sorting: recruitment of CD11b+Ly6Clow anti-fibrotic myeloid cells into muscles of mdx mice; conditions: mdx mice muscle; for % change compared to vehicle (CD11b+Ly6Clow anti-fibrotic myeloid cells) / % of viable cells (CD11b+Ly6Clow anti-fibrotic myeloid cells): 4 weeks
From the text: (§2) In this example, labelled antibodies were used to assess infiltration of inflammatory myeloid and lymphoid cells into muscles of mdx mice following treatment of the mice with different doses of the glucocorticoid prednisolone, and the VAP-1 inhibitors carbidopa and benserazide. CD11b is a transmembrane glycoprotein which is expressed on the surface of granulocytes (including neutrophils and eosinophils), monocytes, NK cells, dendritic cells, tissue macrophages and subsets of T and B cells. Labelled antibody to CD11b was used to assess infiltration of inflammatory myeloid cells into muscles of mdx mice. Labelled antibody to Ly6C was used to assess infiltration of pro- and anti-inflammatory monocytes into muscles of mdx mice. Labelled antibody to CD4 and CD8a antigen was used to assess infiltration of Th cells (CD4^+CD8^-) and double negative (CD4^-CD8^-) T cells into muscles of mdx mice. A total of a ninety C57BU10ScSn-Dmdmdx/J male mice, 3 weeks of age (+/-3days), were transferred to the in vivo research laboratory in Bar Harbor, Me. Additional ten […] male mice 3 weeks of age (+/-3 days) were also transferred and served as a wild-type control group. The mice were ear notched for identification and housed in ventilated polysulfone cages with HEPA filtered air at a density of 3-4 mice per cage. The animal room was lit entirely with artificial fluorescent lighting on controlled 12 hour light/dark cycle (6 a.m. to 6 p.m. light). […] The animal room was set for 15 air exchanges per hour. Filtered tap water acidified to a pH of 2.8 to 3.2 was provided ad libitum. […] Prior to study initiation, mice were acclimated for 3 days. Mice were tested for grip strength and in the open field at ages 25 and 26 days, and drug regimen was initiated at age 27 days. Mice were monitored twice weekly for clinical observations and body weights. […] 24 hours after the second open field tests, blood was collected by retro-orbital bleeding, and mice were humanely euthanized by CO2 asphyxiation. One triceps surae was collected fresh and processed for immune cell sorting, one tibialis anterior was preserved in RNALater for RNA extraction, one whole hind limb and the diaphragm were fixed in 2% paraformaldehyde overnight at 4° C. for paraffin embedding and histology stains. For immune cell sorting, muscle samples were enzymatically and mechanically dissociated following manufacturer instructions (Skeletal Muscle Dissociation KitCatalog no. 130-098-305, Miltenyi Biotec). Cells were stained with the following antibodies: [table] Stained cells were analyzed on a BD LSR II cytometer and counts of different populations were expressed in percentage of the number of live cells counted.

[3] = test system: TNF mRNA; assay: mRNA quantification (RT PCR) of TNF in muscles of mdx mice
From the text: as §1

[4] = test system: CD53 mRNA; assay: mRNA quantification (RT PCR) of CD53 in muscles of mdx mice
From the text: as §1

[5] = test system: CD11b+ myeloid cells; assay: Cell sorting: recruitment of CD11b+ myeloid cells into muscles of mdx mice; conditions: 4 weeks, mdx mice muscle
From the text: as §2

[6] = test system: TGFβ mRNA; assay: mRNA quantification (RT PCR) of pro-fibrotic growth factor TGFβ in muscles of mdx mice
From the text: as §1

[7] = test system: CD11b mRNA; assay: mRNA quantification (RT PCR) of CD11b in muscles of mdx mice
From the text: as §1

[8] = test system: Mpeg1 mRNA; assay: mRNA quantification (RT PCR) of Mpeg1 in muscles of mdx mice; conditions: mdx mice muscle
From the text: as §1

[9] = test system: CD11b+Ly6Chigh profibrotic myeloid cells (Ly6C+ monocytes); assay: Cell sorting: recruitment of CD11b+Ly6Chigh profibrotic myeloid cells into muscles of mdx mice; conditions: mdx mice muscle; for % change compared to vehicle (CD11b+Ly6Chigh profibrotic myeloid cells) / % of viable cells (CD11b+Ly6Chigh profibrotic myeloid cells): 4 weeks
From the text: as §2

[10] = test system: CD48 mRNA; assay: mRNA quantification (RT PCR) of CD48 in muscles of mdx mice
From the text: as §1

[11] = test system: Ly6C1 mRNA; assay: mRNA quantification (RT PCR) of Ly6C1 in muscles of mdx mice; conditions: mdx mice muscle
From the text: as §1

[12] = test system: IL-6 mRNA; assay: mRNA quantification (RT PCR) of IL-6 in muscles of mdx mice; conditions: mdx mice muscle
From the text: as §1

[13] = 0.2 mg/kg ip once/day, mdx mice muscle, GAPDH as normalizer
[14] = treatment alone, mdx mouse muscle

Question: What does the source list for `C[C@]12C=CC(=O)C=C1CC[C@@H]1[C@@H]2[C@@H](O)C[C@@]2(C)[C@H]1CC[C@]2(O)C(=O)CO` [Prednisolone, prednisolone]?
Answer: Lgals3 mRNA level [1, 13]: 1.2; effect on the level of Lgals3 mRNA [1, 14]: no significant effect; % change compared to vehicle (CD11b+Ly6Clow anti-fibrotic myeloid cells) ([2]; 0.2 mg/kg ip once/day): +0.4%; % of viable cells (CD11b+Ly6Clow anti-fibrotic myeloid cells) ([2]; 0.2 mg/kg ip once/day): 27.3%; % change compared to vehicle (CD11b+Ly6Clow anti-fibrotic myeloid cells) ([2]; 1 mg/kg ip once/day): +0.7%; % of viable cells (CD11b+Ly6Clow anti-fibrotic myeloid cells) ([2]; 1 mg/kg ip once/day): 27.4%; effect on recruitment of anti-fibrotic myeloid cells compared with vehicle ([2]; both doses): no statistically significant effect; TNF mRNA level [3, 13]: 0.92; effect on the level of TNF mRNA [3, 14]: No significant effect; CD53 mRNA level [4, 13]: 1.33; effect on the level of CD53 mRNA [4, 14]: not significantly affected; % change compared to vehicle (CD11b+ myeloid cells) ([5]; 0.2 mg/kg ip once/day): +14.8%; % of viable cells (CD11b+ myeloid cells) ([5]; 0.2 mg/kg ip once/day): 41.8%; % change compared to vehicle (CD11b+ myeloid cells) ([5]; 1 mg/kg ip once/day): +20.9%; % of viable cells (CD11b+ myeloid cells) ([5]; 1 mg/kg ip once/day): 44%; % change compared to vehicle (TGFβ mRNA) ([6]; 0.2 mg/kg ip once/day, mdx mice muscle): 48.8%; TGFβ mRNA [6, 13]: 1.80; effect on the level of TGFβ mRNA ([6]; prednisolone alone, muscle of mdx mice): increased; CD11b mRNA level [7, 13]: 1.42; effect on the level of CD11b mRNA [7, 14]: not significantly affected; effect on Mpeg1 mRNA level [8]: No effects; % change compared to vehicle (CD11b+Ly6Chigh profibrotic myeloid cells) ([9]; 0.2 mg/kg ip once/day): +0.6%; % of viable cells (CD11b+Ly6Chigh profibrotic myeloid cells) ([9]; 0.2 mg/kg ip once/day): 7.37%; % change compared to vehicle (CD11b+Ly6Chigh profibrotic myeloid cells) ([9]; 1 mg/kg ip once/day): −38.3%; % of viable cells (CD11b+Ly6Chigh profibrotic myeloid cells) ([9]; 1 mg/kg ip once/day): 4.52%; effect on recruitment of profibrotic myeloid cells compared with vehicle ([9]; both doses): no statistically significant effect; CD48 mRNA level [10, 13]: 1; effect on the level of CD48 mRNA [10, 14]: no significant effect; effect on Ly6C1 mRNA level [11]: No effects; effect on IL-6 mRNA level [12]: No effects
